Results taken from patent US10316021B2, “Heteroarylphenoxy benzamide kappa opioid ligands” (Pfizer Inc., priority 2016, dated 2019).
Where two headings read alike, the source gives them in different places.

Assays:
CYP3A4 = experiment: Single point time dependent inhibition (SPTDI) assay; type: in vitro ADME, human
Experimental: Single Point Time Dependent Inhibition (SPTDI) Assay:
The objective of this study was to investigate the potential of a series of carboxamides to be time dependent inactivators of CYP3A isozymes, in vitro, using midazolam and testosterone as probe substrates for CYP 3A4/5 activity incubated with pooled human liver microsomes (HLM). Pooled HLMs (0.1-1.0 mg/ml) were pre-incubated with individual carboxamides at initial substrate concentrations of 6 or 10 μM in the presence and absence of NADPH (1.3 mM). Pre-incubations (n=2/compound) were performed for 30 min at 37° C. After pre-incubation, a 10-fold dilution of the incubate (0.02 ml) was added to the probe substrate incubate (0.18 ml) containing the respective probe P450 isozyme substrate (midazolam or testosterone for CYP3A, 1 uM), and was incubated at 37° C. The combined incubation reactions were terminated and analyzed for marker substrate activity (Ex: hydroxyl metabolite of midazolam and 6β hydroxy testesterone) as described previously (Walsky and Obach, 2004; Obach et al., 2007). Terminated incubation mixtures were filtered and analyzed by liquid chromatography (LC)-tandem mass spectrometry (MS/MS) for metabolites as described previously (Walsky and Obach, 2004). To determine kobs,app values, the decrease in natural logarithm of the activity over time was plotted for each inactivator concentration, and kobs,app values were described as the negative slopes of the lines. Inactivation kinetic parameters were determined using nonlinear regression of the data to the expression in eq. 1:
[formula] Statistical significance of kobs between solvent and test incubations was inferred using analysis performed by Yates et al. (Yates P, Eng H, Di L, Obach R S. Drug Metab Dispos 2012; 40:2289-96).
Irreversible inhibition, or time-dependent inhibition (TDI) of cytochrome P450s (CYPs) is generally characterized by an increase in enzyme inhibition with respect to time and inhibitor concentration (Grimm 2009). In cases where enzyme inhibition requires metabolic turnover, the mechanism generally involves the formation of a reactive inhibitory intermediate that may irreversibly inactivate CYPs; this mechanism could cause clinical drug-drug interactions due to inhibition of the relevant CYP responsible for metabolizing the victim drug (Grimm 2009; Rowland Yeo 2011). Hazard assessment for irreversible CYP450 inhibitory potential of CYP3A was performed for several compounds in Table 22 using the single point time dependent inhibition (SPTDI) assay, which measures the pseudo-first order rate constant of inactivation (kobs) at a single high concentration (6-10 μM) of a test compound (Zimmerlin 2011). Based on the analysis performed by Yates (2008), compounds showing a kobs of >0.008 min^−1 in this assay are considered to have a potential for TDI, and kobs<0.008 min^−1 are negative or may have a very weak potential for TDI at CYP3A4.

[1] = target: T1, human mu opioid receptor (hMOR) (Homo sapiens, UniProt P35372); experiment: Mu radioligand binding assay ([3H]diprenorphine, CHO cell membranes); conditions: read-out: hMOR binding assay Ki
T1 construct: expressed in transfected cells; host or cells: CHO cells
T1 sequence (P35372 whole entry): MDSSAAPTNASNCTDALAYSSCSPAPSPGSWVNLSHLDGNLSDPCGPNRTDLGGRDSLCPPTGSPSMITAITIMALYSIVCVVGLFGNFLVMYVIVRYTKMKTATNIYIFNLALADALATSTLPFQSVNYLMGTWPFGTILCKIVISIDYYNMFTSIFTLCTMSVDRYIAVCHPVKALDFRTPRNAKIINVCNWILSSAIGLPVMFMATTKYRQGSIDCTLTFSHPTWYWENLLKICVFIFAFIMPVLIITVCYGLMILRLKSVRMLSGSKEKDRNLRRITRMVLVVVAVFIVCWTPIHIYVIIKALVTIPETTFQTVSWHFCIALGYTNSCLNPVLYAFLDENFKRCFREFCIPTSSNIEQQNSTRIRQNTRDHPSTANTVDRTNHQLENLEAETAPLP
How it was run: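 Membranes from CHO cells expressing human mu receptor were incubated 1 h at room temperature with [3H]diprenorphine (0.5 nM final) in Tris pH 7.4 buffer with EDTA and MgCl2; naltrexone (10 μM) defined non-specific binding. Filter-bound radioactivity was counted; Ki derived by Cheng-Prusoff from IC50.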

[2] = test system: THLE-2 (transformed human liver epithelial) cells; experiment: Transformed human liver epithelial (THLE) assay, ATP depletion 72 h; type: cell-based; conditions: for cytotoxicity in THLE cell line, in words: cellular ATP; for IC50: Homo sapiens, read-out: THLE
Experimental: Transformed Human Liver […] (THLE) Assay:
ATP depletion was measured after 72 hours of exposure to a particular concentration of the chemical. […] Cells were cultured in T175 Human fibronectin/collagen/bovine serum albumin coated flasks. […] Plates were incubated for 24 hours at 37° C., 5% CO2.
All compounds were initially solubilized in 100% DMSO. This dosing scheme contained 32 compounds per plate. Stock plates were prepared using 1 μl aliquots of 100× compound/well (30 mM-0.058 mM). The plates were prepared for dosing by adding 99 μl of cell culture media and mixing. Test compounds were added to cell culture plates by aspirating overnight culture media and replacing with 25 μL/well of media containing test compound using the layout outlined below. The final concentration of DMSO in each well was 1.0%. […] The ATP concentration was determined by reading luminescence using a Wallac Envision plate reader (Perkin Elmer, Waltham, Mass., USA). Percent of viable cells relative to no-drug treated controls was determined for each well.

major CYP450 isozymes = experiment: CYP450 DDI cocktail assay (reversible inhibition, all isozymes together); type: in vitro ADME, human; conditions: for risk of reversible inhibition of CYP450 isozymes, in words: 3 μM; for >25% reversible inhibition of CYP activity at 3 μM (CYP): CYP450 DDI cocktail assay, isozymes inhibited in brackets
Experimental: Multi-Point Cocktail DDI IC50 Assay Conditions:
Standard marker activity substrates were incubated with pooled human liver microsomes (HL-MIX-102) in the presence of NADPH (1.2 mM) in 100 mM KH2PO4, pH 7.4 containing 3.3 mM MgCl2 at 37° C. The incubation volume was 0.1 mL, utilizing a 384-well plate format. The microsomal protein concentrations (0.1 mg/mL) and P450 concentration (0.035 μM) was used for each probe substrate at the following concentrations [tacrine (1A2) 2 uM; diclofenac (2C9) 5 μM; dextromethorphan (2D6) 5 μM; midazolam (3A4) 2 μM; taxol (2C8) 5 μM; S-mephenytoin (2C19) 40 μM]. Substrate concentrations were near Km values that had been previously determined and incubation times were selected based on determinations of reaction velocity linearity. Each test compound/prototypical inhibitors was tested at a concentration range of 0-30 μM in triplicate, in final vehicle solvent concentrations of 0.9% acetonitrile and 0.1% DMSO. Incubations were initiated with the addition of NADPH. At the end of the incubation period, termination solvent containing internal standard was added, the terminated incubation mixture was centrifuged to precipitate microsomal protein. Samples were directly injected on an HPLC-MS/MS system. A Biomek FX workstation was used for liquid handling and sample incubation.
Reversible CYP450 inhibitory potential for each compound was assessed using the CYP450 DDI cocktail assay, measuring the inhibition of the metabolism of a known probe substrate of each of the major CYP isozymes at 3 μM concentration.

[3] = THLE-2, ATP cell viability, 72 hours
[4] = Table 19, geometric mean of 2-6 determinations unless otherwise indicated (Example 3: >=7)

Row | >25% reversible inhibition of CYP activity at 3 μM (CYP) (major CYP450 isozymes) | Ki [1, 4] | Structure (SMILES) | risk of time dependent inhibition (TDI) at CYP3A4, in words (CYP3A4) | SPTDI CYP3A4 kobs (CYP3A4; single dose of 6 μM) | SPTDI kobs at CYP3A4 (CYP3A4; tested at 6 μM) | Ki ([1]; Table 20, radioligand binding) | cytotoxicity in THLE cell line, in words ([2]; 72 hours) | IC50 [2, 3] | risk of reversible inhibition of CYP450 isozymes, in words (major CYP450 isozymes) | SPTDI CYP3A4 kobs (CYP3A4; single high dose of 10 μM) | SPTDI kobs at CYP3A4 (CYP3A4; tested at 10 μM) | IC50 ([2]; THLE-2, 72 h) | risk of time dependent inhibition (TDI) at CYP3A4, in words (CYP3A4; listed as Compound 12) | risk of time dependent inhibition (TDI) at CYP3A4, in words (CYP3A4; listed as Compound 11) | risk of time dependent inhibition (TDI) at CYP3A4, in words (CYP3A4; listed as Compound 8)
1 | no |  | NC(=O)c1ccc(Oc2ccc(CN3CCC(c4ccccc4)C3)cc2)nc1 (stereo not drawn) [Comparator A, reference compound] |  |  |  | 0.1 nM |  | > 300 µM |  |  |  |  |  |  | 
2 | yes (2C8, 2C9, |  | NC(=O)c1ccc(Oc2ccc(CN3CCCC3c3cccnc3)cc2)c(Cl)c1 (stereo not drawn) [Comparator C] |  |  |  | 21 nM |  | 177 µM | a risk for reversible DDI at CYP450 isozymes 2C8, 2C9, 3A4, and/or 2D6 |  |  |  |  |  | 
3 | no | 46.2 nM | COc1nn(C)cc1[C@@H]1CCCN1Cc1ccc(Oc2ccc(C(N)=O)cc2)cc1 (single isomer, unassigned) [Example 12] | low to no significant risk for TDI at CYP3A4 |  |  | 46 nM | little to no cytotoxicity | > 300 µM | no significant risk of reversible inhibition | 0.0042 min⁻¹ |  |  | not time dependent inactivators of CYP3A4 |  | 
4 | no |  | NC(=O)c1ccc(Oc2ccc(CN3CCCCC3c3ccccc3)cc2)nc1 (stereo not drawn) [Comparator B] |  |  |  |  |  | 224 µM |  | 0.0041 min⁻¹ |  |  |  |  | 
5 | no | 98.7 nM | COc1nn(C)cc1C1CCCN1Cc1ccc(Oc2ccc(C(N)=O)cc2F)cc1 (single isomer, unassigned; (-)) [Example 8, (−)-3-Fluoro-4-(4-{[2-(3-methoxy-1-methyl-1H-pyrazol-4-yl)pyrrolidin-1-yl]methyl}phenoxy)benzamide] | low to no significant risk for TDI at CYP3A4 |  |  | 99 nM | little to no cytotoxicity | > 300 µM | no significant risk of reversible inhibition | 0.0044 min⁻¹ |  |  |  |  | not time dependent inactivators of CYP3A4

More lines, now with the values behind:

Row | Structure (SMILES) | >25% reversible inhibition of CYP activity at 3 μM (CYP) (major CYP450 isozymes) | Ki [1, 4] | risk of time dependent inhibition (TDI) at CYP3A4, in words (CYP3A4) | SPTDI CYP3A4 kobs (CYP3A4; single dose of 6 μM) | SPTDI kobs at CYP3A4 (CYP3A4; tested at 6 μM) | Ki ([1]; Table 20, radioligand binding) | cytotoxicity in THLE cell line, in words ([2]; 72 hours) | IC50 [2, 3] | risk of reversible inhibition of CYP450 isozymes, in words (major CYP450 isozymes) | SPTDI CYP3A4 kobs (CYP3A4; single high dose of 10 μM) | SPTDI kobs at CYP3A4 (CYP3A4; tested at 10 μM) | IC50 ([2]; THLE-2, 72 h) | risk of time dependent inhibition (TDI) at CYP3A4, in words (CYP3A4; listed as Compound 12) | risk of time dependent inhibition (TDI) at CYP3A4, in words (CYP3A4; listed as Compound 11) | risk of time dependent inhibition (TDI) at CYP3A4, in words (CYP3A4; listed as Compound 8)
6 | Cc1cc(C)cc([C@@H]2CCCN2Cc2ccc(Oc3ccc(C(N)=O)cc3F)cc2)c1 [Comparator E, reference compound] | yes (2C8) |  | potential risk of CYP3A4 TDI | 0.0113^2 min−1 | 0.011 min⁻¹ | 7.8 nM | cytotoxicity at lower concentrations | 26 µM | a risk for reversible DDI at CYP450 isozymes 2C8, 2C9, 3A4, and/or 2D6 |  |  |  |  |  | 
7 | NC(=O)c1ccc(Oc2ccc(CN3CCC[C@H]3c3cccc(F)c3)cc2)c(F)c1 [Comparator F] | no |  | potential risk of CYP3A4 TDI |  |  | 37.5 nM | cytotoxicity at lower concentrations |  |  | 0.0133 min⁻¹ | 0.0133 min⁻¹ | 37 µM |  |  | 
8 | Cc1nn(C)cc1[C@@H]1CCCN1Cc1ccc(Oc2ccc(C(N)=O)cc2)cc1 [Example 11, 4-(4-{[(2S)-2-(1,3-Dimethyl-1H-pyrazol-4-yl)pyrrolidin-1-yl]methyl}phenoxy)benzamide] | no | 51 nM | low to no significant risk for TDI at CYP3A4 |  |  | 51 nM | little to no cytotoxicity |  | no significant risk of reversible inhibition | 0.0055 min⁻¹ |  | > 300 µM |  | not time dependent inactivators of CYP3A4 | 
9 | NC(=O)c1ccc(Oc2ccc(CN3CCCC3c3ccccc3)cc2)nc1 (stereo not drawn) [Comparator D] | yes (2D6) |  |  |  |  | 163 nM |  |  | a risk for reversible DDI at CYP450 isozymes 2C8, 2C9, 3A4, and/or 2D6 | 0.0065 min⁻¹ |  | 179 µM |  |  | 
